Here are results for four compounds from ChEMBL document CHEMBL1135216, “New 2-(1-adamantylcarbonyl)pyridine and 1-acetyladamantane thiosemicarbazones-thiocarbonohydrazones: cell growth inhibitory, antiviral and antimicrobial activity evaluation” (Bioorg Med Chem Lett, 2002).

The test system of assay [1] is E6SM. Briefly: Tested for antiviral activity against VSV-virus in human embryonic skin muscle fibroblasts. It counts as functional. The note with it: Muscle tissue.
Assay [2] relates to E6SM. Put plainly: Tested for antiviral activity against herpes simplex virus type 1(KOS) in E6SM cell line(human embryonic skin-muscle fibroblasts). It counts as functional.
The test system of assay [3] is E6SM. Put plainly: Tested for antiviral activity against thymidine kinase-deficient (TK-HSV-2G) virus in E6SM cell line(human embryonic skin-muscle fibroblasts). The assay is classed as functional.
The test system of assay [4] is E6SM. Put plainly: Tested for antiviral activity against vaccinia virus in human embryonic skin muscle fibroblast. To be noted: Muscle tissue. It counts as functional.
Assay [5] deals with E6SM. Put plainly: The compound was tested for antiviral activity against thymidine kinase-deficient (TK-HSV-1)virus in E6SM cell line(human embryonic skin-muscle fibroblasts). The assay is classed as functional.
In assay [6] the test system is E6SM. Put plainly: Tested for cytotoxic activity in human embryonic skin muscle fibroblast (E6SM). It counts as functional. To be noted: Muscle tissue.
Assay [7] has as its system HEL. Put plainly: Tested for cytotoxic activity in human embryonic lung fibroblast (HEL). It counts as functional.
Assay [8] concerns HEL. Put plainly: Tested for antiviral activity against thymidine kinase wild type Varicella zoster virus in human embryonic lung fibroblast. The assay is classed as functional.
Assay [9] relates to HEL. Briefly: Tested for antiviral activity against thymidine kinase deficient Varicella zoster virus in human embryonic lung fibroblasts.
Assay [10] concerns HeLa. Put plainly: The compound was tested for antiviral activity against VSV-virus in human epithelial cells. The assay is classed as functional.
Assay [11] deals with Escherichia coli. Briefly: Tested for the antimicrobial activity minimum inhibitory concentration) against Escherichia coli. The assay is classed as functional.
Assay [12] deals with HeLa. Put plainly: Tested for antiviral activity against coxsackie-B4 virus in human epithelial cell line. It counts as functional.
The subject of assay [13] is HeLa. Put plainly: Tested for cytotoxic activity in human epithelial cell line (HeLa). The assay is classed as functional.
The test system of assay [14] is Klebsiella pneumoniae. Briefly: Tested for the antimicrobial activity minimum inhibitory concentration) against Klebsiella pneumoniae. The assay is classed as functional.
The test system of assay [15] is Staphylococcus hominis. Put plainly: Tested for the antimicrobial activity minimum inhibitory concentration) against Staphylococcus hominis. The assay is classed as functional.
In assay [16] the test system is Vero. Briefly: Tested for cytotoxic activity in African green monkey kidney cells (Vero). The assay is classed as functional. The note with it: Chlorocebus sabaeus.
For assay [17], the system named is Vero. Briefly: Tested for antiviral activity against Punta toro virus in African green monkey kidney cell (Vero). It counts as functional. The note with it: Chlorocebus sabaeus.
The test system of assay [18] is Vero. Briefly: Tested for antiviral activity against Reo-1 virus in African green monkey kidney cell (Vero). To be noted: Chlorocebus sabaeus. The assay is classed as functional.
Assay [19] relates to Vero. Briefly: Tested for antiviral activity against Sindbis virus in African green monkey kidney cell (Vero). It counts as functional. To be noted: Chlorocebus sabaeus.
Assay [20] deals with Vero. Briefly: Tested for antiviral activity against coxsackie B-4 virus in African green monkey kidney cell (Vero). It counts as functional. The note with it: Chlorocebus sabaeus.
For assay [21], the system named is Vero. Briefly: Tested for antiviral activity against parainfluenza virus in african green monkey kidney cell (Vero). It counts as functional. The note with it: Chlorocebus sabaeus.
The subject of assay [22] is Escherichia coli. Briefly: Tested for the antimicrobial activity as minimum inhibitory concentration against Escherichia coli ATCC 25922. It counts as functional.
Assay [23] has as its system Klebsiella pneumoniae. Put plainly: Tested for the antimicrobial activity as minimum inhibitory concentration against Klebsiella pneumoniae ATCC 13883. It counts as functional.
Assay [24] concerns Staphylococcus aureus. Briefly: Tested for the antimicrobial activity as minimum inhibitory concentration against Staphylococcus aureus ATCC 6538. The assay is classed as functional.
Assay [25] concerns Staphylococcus epidermidis. Briefly: Tested for the antimicrobial activity as minimum inhibitory concentration against Staphylococcus epidermidis ATCC 12228. The assay is classed as functional.
The test system of assay [26] is Staphylococcus hominis. Put plainly: Tested for the antimicrobial activity as minimum inhibitory concentration against Staphylococcus hominis ATCC 27844. It counts as functional.
The test system of assay [27] is MT4. Put plainly: The compound was tested for effective concentration required to protect MT-4 cells against the cytopathicity of HIV-1(IIIB). The assay is classed as functional, cell-based. The note with it: Homo sapiens. In general terms: Protection from cytopathic effect is a common read-out in antiviral testing.
Assay [28] deals with MT4. Briefly: The compound was tested for effective concentration required to protect MT-4 cells against the cytopathicity of HIV-2(ROD). The assay is classed as functional, cell-based. To be noted: Homo sapiens.
Assay [29] has as its system MT4. Briefly: The compound was tested for cytotoxic concentration required to reduce the viability of MT-4 cells. The note with it: Homo sapiens. The assay is classed as functional.

Each structure is given as a SMILES string. In brackets after ≈: the same amount, converted by molar mass. Where only a bound is given, the exact number is not on record here.

As for `Nc1nc2c(ncn2COCCO)c(=O)[nH]1` [ACYCLOVIR], the MIC was 48 µg/mL (≈ 213 µM) in assay [1]; 0.08 µg/mL (≈ 0.355 µM) in assay [2]; 0.08 µg/mL (≈ 0.355 µM) in assay [3]; over 400 µg/mL in assay [4]; 48 µg/mL (≈ 213 µM) in [5]; 1.1 µg/mL (≈ 4.88 µM) in assay [8]. The compound also displayed an MIC in assay [9] of 12.3 µg/mL (≈ 54.6 µM). Besides, the figures for the MCC in assay [6] and in assay [7] were over 400 µg/mL and over 50 µg/mL, respectively.

With `NC(=O)c1ncn([C@@H]2O[C@H](CO)[C@@H](O)[C@H]2O)n1` [RIBAVIRIN], the MIC was 400 µg/mL (≈ 1640 µM) in [1]; 240 µg/mL (≈ 983 µM) in [4]; 240 µg/mL (≈ 983 µM) in assay [10]; over 400 µg/mL in assay [11]; 48 µg/mL (≈ 197 µM) in assay [12]; over 400 µg/mL in assay [14]. Besides, the MIC in [15] was over 400 µg/mL; in assay [17], 16 µg/mL (≈ 65.5 µM); in [18], 80 µg/mL (≈ 328 µM); in assay [19], 80 µg/mL (≈ 328 µM); in assay [20], 240 µg/mL (≈ 983 µM). Besides, the MCC in assay [6] was over 400 µg/mL; in assay [13] it was over 400 µg/mL; in assay [16], over 400 µg/mL; in assay [21], 48 µg/mL.

`CN[C@@H]1[C@H](O[C@H]2[C@H](O[C@H]3[C@H](O)[C@@H](O)[C@H](N=C(N)N)[C@@H](O)[C@@H]3N=C(N)N)O[C@@H](C)[C@]2(O)C=O)O[C@@H](CO)[C@H](O)[C@H]1O` [STREPTOMYCIN]: the MIC in assay [22] came to 0.6 µg/mL (≈ 1.03 µM); in assay [23], 0.6 µg/mL (≈ 1.03 µM); in assay [24], 2.1 µg/mL (≈ 3.61 µM); in assay [25], 2.1 µg/mL (≈ 3.61 µM); in assay [26] it was 2.1 µg/mL (≈ 3.61 µM).

Usually EC50 stands for the concentration at which the effect is half-maximal. As usually defined, the CC50 is the concentration at which the toxic effect on the cells reaches its halfway point. As to `Cc1cn([C@H]2C[C@H](N=[N+]=[N-])[C@@H](CO)O2)c(=O)[nH]c1=O` [ZIDOVUDINE], the 50% effective concentration (EC50) in [27] is 6.4 nM; in assay [28], 6 nM. In addition, in [29], the CC50 is over 500000 nM.
